From patent publication US10287305B2, “Substituted piperidine compound and use thereof” (Takeda Pharmaceutical Company Limited, priority 2016, dated 2019)

Target: human orexin type 2 receptor (hOX2R) (Homo sapiens (Human), UniProt O43614)
Assay: Measurement of orexin type 2 receptor agonist activity (Experimental Example 2-1, FLIPR TETRA, intracellular Ca2+)
Type: cell-based
Details: CHO dhfr- cells expressing hOX2R, FLIPR TETRA, Fluo-4AM; for Emax: read-out: Emax (%)
Text: To obtain a cell clone stably expressing human orexin type 2 receptor, human orexin type 2 receptor cDNA was inserted into pcDNA3.1(+) plasmid vector (Invitrogen), and a plasmid DNA for expression of human orexin type 2 receptor (pcDNA3.1(+)/hOX2R) was cloned. The plasmid DNA was introduced into CHO-dhfr cell by an electroporation method, and human orexin type 2 receptor expressing clone cells were obtained by limiting dilution method by using G418 drug resistance as a selection marker.
Chinese hamster ovary (CHO) dhfr-cells forcibly expressing human orexin type 2 receptor (hOX2R) were seeded in each well of Black clear bottom plate (384 wells) (Becton, Dickinson and Company) by 10,000 cells, and cultured for 16 hr in an MEM-alpha (Nikken-Bio Co., Ltd.) medium containing 100 U/ml penicillin, 100 μg/ml streptomycin, […] G418 (all above Invitrogen), and 10% fetal calf serum (Thermo), under the conditions of 37° C., 5% CO2. […] A test compound was dissolved in dimethyl sulfoxide to 10 mM, and then diluted with assay buffer 2 (20 mM HEPES, Hanks' balanced salt solution (Invitrogen), 0.1% bovine serum albumin). For the reaction, a test compound solution (10 μL) was added using Fluorescent Imaging Plate Reader TETRA (FLIPR TETRA; manufactured by Molecular Devices), a fluorescence value (excitation wavelength 488 nm, measurement wavelength 570 nm) of each well was measured every one second for 1 min, and the agonist activity was determined using the area of the fluorescence value as an indicator of intracellular Ca^2+ concentration.

Chain of human orexin type 2 receptor (hOX2R) (O43614 whole entry): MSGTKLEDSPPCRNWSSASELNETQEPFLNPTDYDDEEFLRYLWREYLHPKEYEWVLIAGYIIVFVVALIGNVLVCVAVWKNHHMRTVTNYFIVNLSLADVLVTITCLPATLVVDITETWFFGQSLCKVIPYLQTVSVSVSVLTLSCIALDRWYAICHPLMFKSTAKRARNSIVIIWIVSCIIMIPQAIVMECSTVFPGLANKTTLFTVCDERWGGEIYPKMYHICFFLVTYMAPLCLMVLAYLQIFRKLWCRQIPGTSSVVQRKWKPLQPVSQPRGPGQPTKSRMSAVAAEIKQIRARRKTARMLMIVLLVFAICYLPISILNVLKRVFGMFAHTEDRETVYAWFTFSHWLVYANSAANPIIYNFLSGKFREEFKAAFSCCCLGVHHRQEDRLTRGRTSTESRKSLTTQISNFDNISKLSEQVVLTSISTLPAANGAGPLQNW

| EC50 [µM] | Emax [%] | Structure (SMILES) |
| --- | --- | --- |
| 0.39 | 120 | CCNC(=O)N1CCC[C@H](NS(C)(=O)=O)[C@@H]1COC1CCN(c2ccccc2)CC1 (relative stereo) [Example 123, cis-N-ethyl-3-((methylsulfonyl)amino)-2-(((1-phenylpiperidin-4-yl)oxy)methyl)piperidine-1-carboxamide] |
| 2.6 | 85 | CCNC(=O)N1CCC[C@H](NS(C)(=O)=O)[C@@H]1COC1CCC(OC)CC1 (relative stereo) [Example 126, cis-N-ethyl-2-(((4-methoxycyclohexyl)oxy)methyl)-3-((methylsulfonyl)amino)piperidine-1-carboxamide] |
| 2.4 | 88 | CC(=O)N1CCC[C@H](NS(C)(=O)=O)[C@@H]1CO[C@H]1CC[C@@H](C)CC1 (relative stereo) [Example 128, N-(cis-1-acetyl-2-(((cis-4-methylcyclohexyl)oxy)methyl)piperidin-3-yl)methanesulfonamide] |
| 0.039 | 96 | CCNC(=O)N1CCC[C@H](NS(C)(=O)=O)[C@@H]1CO[C@H]1CC[C@@H](C)CC1 (relative stereo) [Example 129, cis-N-ethyl-2-(((cis-4-methylcyclohexyl)oxy)methyl)-3-((methylsulfonyl)amino)piperidine-1-carboxamide] |
| 0.46 | 96 | CCNC(=O)N1CCC[C@H](NS(C)(=O)=O)[C@@H]1CO[C@H]1C[C@H](c2ccccc2)C1 (relative stereo) [Example 130, cis-N-ethyl-3-((methylsulfonyl)amino)-2-(((trans-3-phenylcyclobutyl)oxy)methyl)piperidine-1-carboxamide] |
| 1 | 97 | CN(C)CC(=O)N1CCC[C@H](NS(C)(=O)=O)[C@@H]1CO[C@H]1CC[C@@H](c2ccccc2)CC1 (relative stereo) [Example 133, N-(cis-1-(N,N-dimethylglycyl)-2-(((cis-4-phenylcyclohexyl)oxy)methyl)piperidin-3-yl)methanesulfonamide] |
| 0.00022 | 102 | CCNC(=O)N1CCC[C@H](NS(C)(=O)=O)[C@@H]1CO[C@H]1CC[C@@H](c2cccc(F)c2F)CC1 (relative stereo) [Example 136, cis-2-(((cis-4-(2,3-difluorophenyl)cyclohexyl)oxy)methyl)-N-ethyl-3-((methylsulfonyl)amino)piperidine-1-carboxamide] |
| 0.24 | 101 | CCNC(=O)N1CCC[C@H](NS(C)(=O)=O)[C@@H]1CO[C@H]1CC[C@@H](c2cnn(C)c2)CC1 (relative stereo) [Example 137, cis-N-ethyl-2-(((cis-4-(1-methyl-1H-pyrazol-4-yl)cyclohexyl)oxy)methyl)-3-((methylsulfonyl)amino)piperidine-1-carboxamide] |
| 0.022 | 94 | CS(=O)(=O)N[C@H]1CCCN(C(=O)Cn2cccn2)[C@H]1CO[C@H]1CC[C@@H](c2ccccc2)CC1 (relative stereo) [Example 138, N-(cis-2-(((cis-4-phenylcyclohexyl)oxy)methyl)-1-(1H-pyrazol-1-ylacetyl)piperidin-3-yl)methanesulfonamide] |
|  | 103 | CS(=O)(=O)N[C@H]1CCCN(C(=O)C(F)F)[C@H]1CO[C@H]1CC[C@@H](c2ccccc2)CC1 (relative stereo) [Example 139, N-(cis-1-(difluoroacetyl)-2-(((cis-4-phenylcyclohexyl)oxy)methyl)piperidin-3-yl)methanesulfonamide] |
| 0.39 | 92 | CCNC(=O)N1CCC[C@H](NS(C)(=O)=O)[C@@H]1CO[C@H]1CO[C@@H](c2ccccc2)OC1 (relative stereo) [Example 140, cis-N-ethyl-3-((methylsulfonyl)amino)-2-(((cis-2-phenyl-1,3-dioxan-5-yl)oxy)methyl)piperidine-1-carboxamide] |
| 0.46 | 95 | CC(=O)N1CCC[C@H](NS(C)(=O)=O)[C@@H]1CO[C@H]1CC[C@@H](c2ccc(F)c(F)c2)CC1 (relative stereo) [Example 141, N-(cis-1-acetyl-2-(((cis-4-(3,4-difluorophenyl)cyclohexyl)oxy)methyl)piperidin-3-yl)methanesulfonamide] |
| 4 | 96 | CS(=O)(=O)N[C@H]1CCCN[C@H]1CO[C@H]1CC[C@@H](c2ccc(F)cc2F)CC1 (relative stereo) [Example 142, N-(cis-2-(((cis-4-(2,4-difluorophenyl)cyclohexyl)oxy)methyl)piperidin-3-yl)methanesulfonamide] |
|  | 96 | Cn1ccc([C@H]2CC[C@@H](OC[C@@H]3NCCC[C@@H]3NS(C)(=O)=O)CC2)n1 (relative stereo) [Example 143, N-(cis-2-(((cis-4-(1-methyl-1H-pyrazol-3-yl)cyclohexyl)oxy)methyl)piperidin-3-yl)methanesulfonamide] |
| 0.001 | 104 | CCNC(=O)N1CCC[C@H](NS(C)(=O)=O)[C@@H]1CO[C@H]1CC[C@@H](c2ccc(F)c(F)c2)CC1 (relative stereo) [Example 144, cis-2-(((cis-4-(3,4-difluorophenyl)cyclohexyl)oxy)methyl)-N-ethyl-3-((methylsulfonyl)amino)piperidine-1-carboxamide] |
| 0.81 | 106 | CC(=O)N1CCC[C@H](NS(C)(=O)=O)[C@@H]1CO[C@H]1CC[C@@H](c2ccc(F)cc2F)CC1 (relative stereo) [Example 145, N-(cis-1-acetyl-2-(((cis-4-(2,4-difluorophenyl)cyclohexyl)oxy)methyl)piperidin-3-yl)methanesulfonamide] |
| 0.0025 | 100 | CCNC(=O)N1CCC[C@H](NS(C)(=O)=O)[C@@H]1CO[C@H]1CC[C@@H](c2ccc(F)cc2F)CC1 (relative stereo) [Example 146, cis-2-(((cis-4-(2,4-difluorophenyl)cyclohexyl)oxy)methyl)-N-ethyl-3-((methylsulfonyl)amino)piperidine-1-carboxamide] |
| 0.49 | 107 | COC(=O)N1CCC[C@H](NS(C)(=O)=O)[C@@H]1COC1CCN(c2ncccn2)CC1 (relative stereo) [Example 151, methyl cis-3-((methylsulfonyl)amino)-2-(((1-(pyrimidin-2-yl)piperidin-4-yl)oxy)methyl)piperidine-1-carboxylate] |
|  | 96 | CS(=O)(=O)N[C@H]1CCCN(S(C)(=O)=O)[C@H]1CO[C@H]1CC[C@@H](c2ccccc2)CC1 (relative stereo) [Example 152, N-(cis-1-(methylsulfonyl)-2-(((cis-4-phenylcyclohexyl)oxy)methyl)piperidin-3-yl)methanesulfonamide] |
| 2.4 | 94 | COC(=O)N1CCC[C@H](NS(C)(=O)=O)[C@@H]1CO[C@H]1CC[C@@H](c2ccn(C)n2)CC1 (relative stereo) [Example 154, methyl cis-2-(((cis-4-(1-methyl-1H-pyrazol-3-yl)cyclohexyl)oxy)methyl)-3-((methylsulfonyl)amino)piperidine-1-carboxylate] |
|  | 95 | CC(C)(C)OC(=O)N1CCC[C@H](NS(C)(=O)=O)[C@@H]1CO[C@H]1CC[C@@H](c2ccccc2)CC1 (relative stereo) [Example 155, tert-butyl cis-3-((methylsulfonyl)amino)-2-(((cis-4-phenylcyclohexyl)oxy)methyl)piperidine-1-carboxylate] |
| 0.35 | 95 | CC(=O)N(C)CC(=O)N1CCC[C@H](NS(C)(=O)=O)[C@@H]1CO[C@H]1CC[C@@H](c2ccccc2)CC1 (relative stereo) [Example 156, N-methyl-N-(2-(cis-3-((methylsulfonyl)amino)-2-(((cis-4-phenylcyclohexyl)oxy)methyl)piperidin-1-yl)-2-oxoethyl)acetamide] |
| 0.14 | 91 | CS(=O)(=O)N[C@H]1CCCN(C(=O)Cc2nccs2)[C@H]1CO[C@H]1CC[C@@H](c2ccccc2)CC1 (relative stereo) [Example 157, N-(cis-2-(((cis-4-phenylcyclohexyl)oxy)methyl)-1-(1,3-thiazol-2-ylacetyl)piperidin-3-yl)methanesulfonamide] |
| 1.6 | 83 | CC(=O)N1CCC[C@H](NS(C)(=O)=O)[C@@H]1CO[C@H]1CC[C@@H](c2ccn(C)n2)CC1 (relative stereo) [Example 158, N-(cis-1-acetyl-2-(((cis-4-(1-methyl-1H-pyrazol-3-yl)cyclohexyl)oxy)methyl)piperidin-3-yl)methanesulfonamide] |
| 0.14 | 96 | CCNC(=O)N1CCC[C@H](NS(C)(=O)=O)[C@@H]1CO[C@H]1CC[C@@H](c2ccn(C)n2)CC1 (relative stereo) [Example 159, cis-N-ethyl-2-(((cis-4-(1-methyl-1H-pyrazol-3-yl)cyclohexyl)oxy)methyl)-3-((methylsulfonyl)amino)piperidine-1-carboxamide] |
